Patent US20100210836A1, “SMALL MOLECULE INHIBITORS OF LYMPHOID TYROSINE PHOSPHATASE” (University of Southern California, priority 2009, published 2010)

Biological target: T1, LYP/PTPN22 (Homo sapiens, UniProt Q9Y2R2)
T1 construct: catalytic domains of LYP (aa 2-309) and PTP-PEST (aa 2-323, PEST); 6xHis (N, cleaved yes); made in house; host or cells: E. coli BL21
T1 sequence (Q9Y2R2 2-309): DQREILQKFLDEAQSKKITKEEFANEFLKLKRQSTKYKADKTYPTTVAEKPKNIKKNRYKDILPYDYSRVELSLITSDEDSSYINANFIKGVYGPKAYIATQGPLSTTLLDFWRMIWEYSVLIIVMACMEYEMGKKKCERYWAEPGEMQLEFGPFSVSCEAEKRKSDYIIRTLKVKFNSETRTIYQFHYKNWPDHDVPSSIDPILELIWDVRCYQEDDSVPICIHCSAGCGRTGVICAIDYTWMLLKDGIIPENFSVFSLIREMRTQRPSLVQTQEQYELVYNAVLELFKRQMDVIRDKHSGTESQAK
Assay: biochemical
Details: not given

Compound	PEST_LYP
Cc1cccc2cc(C(c3nnnn3C3CCCC3)N3CCN(C(c4ccccc4)c4ccccc4)CC3)c(=O)[nH]c12 (centres unmarked) [compound 17]	0.76
Cc1ccc2[nH]c(=O)c([C@H](c3nnnn3C3CCCC3)N3CCN(c4ccccc4F)CC3)cc2c1 [compound 36]	0.92
Cc1ccc2[nH]c(=O)c(C(c3nnnn3C3CCCC3)N3CCN(C(c4ccccc4)c4ccccc4)CC3)cc2c1 (centres unmarked) [compound 3]	1.38
Cc1cc(C)c2[nH]c(=O)c(C(c3nnnn3C3CCCC3)N3CCCC4(CCCCC4)C3)cc2c1 (centres unmarked) [compound 30]	1.53
Cc1ccc2[nH]c(=O)c([C@H](c3nnnn3C3CCCC3)N3CCN(c4ccccc4)CC3)cc2c1 [compound 47]	0.89
Cc1ccc2cc(C(c3nnnn3C3CCCC3)N3CCN(C(c4ccccc4)c4ccccc4)CC3)c(=O)[nH]c2c1 (centres unmarked) [compound 5]	0.81
COc1ccc(N2CCN([C@H](c3cc4cc(C)ccc4[nH]c3=O)c3nnnn3C3CCCC3)CC2)cc1 [compound 42]	1.27
Cc1ccc2cc(C(c3nnnn3C3CCCC3)N3CCCC4(CCCCC4)C3)c(=O)[nH]c2c1 (centres unmarked) [compound 21]	1.43

Same assay, conditions: LYP IC50

Compound	IC50 [µM]
Cc1cccc2cc(C(c3nnnn3C3CCCC3)N3CCN(C(c4ccccc4)c4ccccc4)CC3)c(=O)[nH]c12 (centres unmarked) [compound 17]	13.3
Cc1ccc2[nH]c(=O)c(C(c3nnnn3C3CCCC3)N3CCN(C(c4ccccc4)c4ccccc4)CC3)cc2c1 (centres unmarked) [compound 3]	6.3
Cc1cc(C)c2[nH]c(=O)c(C(c3nnnn3C3CCCC3)N3CCCC4(CCCCC4)C3)cc2c1 (centres unmarked) [compound 30]	20.4
Cc1ccc2[nH]c(=O)c([C@H](c3nnnn3C3CCCC3)N3CCN(c4ccccc4)CC3)cc2c1 [compound 47]	36.5
Cc1ccc2cc(C(c3nnnn3C3CCCC3)N3CCN(C(c4ccccc4)c4ccccc4)CC3)c(=O)[nH]c2c1 (centres unmarked) [compound 5]	7.86
COc1ccc(N2CCN([C@H](c3cc4cc(C)ccc4[nH]c3=O)c3nnnn3C3CCCC3)CC2)cc1 [compound 42]	31.7
Cc1ccc2cc(C(c3nnnn3C3CCCC3)N3CCCC4(CCCCC4)C3)c(=O)[nH]c2c1 (centres unmarked) [compound 21]	15.2

Same assay, conditions: LYP IC50, Table IV, analogues of E3P13

Compound	IC50 [µM]
Cc1cc(C)c2[nH]c(=O)c([C@@H](c3nnnn3Cc3ccccc3)N3CCCC4(CCCCC4)C3)cc2c1 [compound 14]	12.9
Cc1cccc2cc([C@H](c3nnnn3Cc3ccccc3)N3CCCC4(CCCCC4)C3)c(=O)[nH]c12 [compound 31]	20.4
Cc1ccc2[nH]c(=O)c([C@@H](c3nnnn3C3CCCC3)N3CCc4ccccc4C3)cc2c1 [compound 39]	30.5
Cc1cc(C)c2[nH]c(=O)c([C@H](c3nnnn3C3CCCC3)N3CCC[C@@H](C)C3)cc2c1 [compound 49]	39.5
Cc1ccc2[nH]c(=O)c([C@H](c3nnnn3C3CCCC3)N3CCN4CCC[C@H]4C3)cc2c1 [compound 57]	> 40
Cc1ccc2cc([C@H](c3nnnn3CC3CCCC3)N3CCCC4(CCCCC4)C3)c(=O)[nH]c2c1 [compound 23]	17.1
Cc1cccc2cc([C@H](c3nnnn3CC3CCCC3)N3CCCC4(CCCCC4)C3)c(=O)[nH]c12 [compound 51]	> 40
Cc1ccc2cc([C@H](c3nnnn3C3CCCC3)N3CCN(c4ccccc4)CC3)c(=O)[nH]c2c1 [compound 41]	31
Cc1ccc2cc([C@@H](c3nnnn3C3CCCC3)N3CCCCC3)c(=O)[nH]c2c1 [compound 44]	32.5
Cc1ccc2[nH]c(=O)c([C@@H](c3nnnn3C3CCCC3)N3CCCCCC3)cc2c1 [compound 54]	> 40
Cc1ccc2[nH]c(=O)c([C@H](c3nnnn3C3CCCC3)N(C)C3CCCCC3)cc2c1 [compound 53]	> 40
COc1ccc2cc([C@H](c3nnnn3CC3CCCC3)N3CCCC4(CCCCC4)C3)c(=O)[nH]c2c1 [compound 55]	> 40

Now from value to compound:

IC50 [µM]	Compound
> 40	Cc1ccc2[nH]c(=O)c([C@@H](c3nnnn3C3CCCC3)N3CCCC3)cc2c1 [compound 59]
> 40	COc1ccc2cc([C@@H](c3nnnn3C3CCCC3)N3CCC(C)CC3)c(=O)[nH]c2c1 [compound 65]
> 40	COc1ccc2cc([C@@H](c3nnnn3C3CCCC3)N3CCCCC3)c(=O)[nH]c2c1 [compound 64]
> 40	Cc1cccc2cc([C@H](c3nnnn3C3CCCC3)N3CCC[C@@H](C)C3)c(=O)[nH]c12 [compound 72]
> 40	Cc1cc(C)c2[nH]c(=O)c([C@H](c3nnnn3C3CCCC3)N3CCC(C)CC3)cc2c1 [compound 62]
> 40	Cc1ccc2cc([C@@H](c3nnnn3C3CCCC3)N3CCCCC3)c(=O)[nH]c2c1 [compound 68]
> 40	Cc1cc(C)c2cc([C@H](c3nnnn3C3CCCC3)N3CCC(C)CC3)c(=O)[nH]c2c1 [compound 71]
> 40	Cc1ccc2[nH]c(=O)c([C@@H](c3nnnn3C3CCCC3)N3CCOCC3)cc2c1 [compound 58]
> 40	CCOC(=O)C1CCN([C@H](c2cc3cc(C)ccc3[nH]c2=O)c2nnnn2C2CCCC2)CC1 [compound 79]
> 40	Cc1cc(C)c2[nH]c(=O)c([C@H](c3nnnn3C3CCCC3)N3CCCCC3)cc2c1 [compound 61]
> 40	Cc1cc(C)c2cc([C@H](c3nnnn3C3CCCC3)N3CCCCC3)c(=O)[nH]c2c1 [compound 70]
> 40	Cc1cccc2cc([C@H](c3nnnn3C3CCCC3)N3CCN(C)CC3)c(=O)[nH]c12 [compound 75]
> 40	Cc1ccc2[nH]c(=O)c([C@H](c3nnnn3C3CCCC3)N3CCC(O)CC3)cc2c1 [compound 78]
> 40	Cc1ccc2cc([C@@H](c3nnnn3C3CCCC3)N3CCCCC3)c(=O)[nH]c2c1C [compound 63]
> 40	Cc1cccc2cc([C@@H](c3nnnn3C3CCCC3)N3CCCCC3)c(=O)[nH]c12 [compound 76]
> 40	Cc1ccc2cc([C@H](c3nnnn3C3CCCC3)N3CCC[C@@H](C)C3)c(=O)[nH]c2c1C [compound 60]
> 40	COc1ccc(N2CCN([C@H](c3cc4ccc(OC)cc4[nH]c3=O)c3nnnn3C3CCCC3)CC2)cc1 [compound 67]
> 40	COc1ccc2cc([C@H](c3nnnn3C3CCCC3)N3CCN(c4ccccc4)CC3)c(=O)[nH]c2c1 [compound 66]
> 40	Cc1cccc2cc([C@H](c3nnnn3C3CCCCC3)N3CCN(Cc4ccccc4)CC3)c(=O)[nH]c12 [compound 69]

Same assay, conditions: Table IV, analogues of E3P13; read-out: LYP IC50

Compound	IC50 [µM]
CCN1CCN([C@H](c2cc3cc(C)ccc3[nH]c2=O)c2nnnn2C2CCCC2)CC1 [compound 52]	> 40
Cc1ccc2[nH]c(=O)c([C@H](c3nnnn3C3CCCC3)N3CCN(C)CC3)cc2c1 [compound 56]	> 40
COc1ccccc1N1CCN([C@H](c2cc3cc(C)ccc3[nH]c2=O)c2nnnn2C2CCCC2)CC1 [compound 50]	> 40

Next, values leading:

IC50 [µM]	Compound
> 40	Cc1ccc2[nH]c(=O)c([C@H](c3nnnn3C3CCCC3)N3CCN(C4CCCCC4)CC3)cc2c1 [compound 73]
> 40	Cc1ccc2[nH]c(=O)c([C@H](c3nnnn3C3CCCC3)N3CCN(c4ccc(O)cc4)CC3)cc2c1 [compound 74]
> 40	Cc1ccc2[nH]c(=O)c([C@H](c3nnnn3C3CCCC3)N3CCN(Cc4ccccc4)CC3)cc2c1 [compound 80]
> 40	Cc1ccc2[nH]c(=O)c([C@H](c3nnnn3C3CCCC3)N3CCN(Cc4ccccc4)CC3)cc2c1 [compound 77]

Same assay, conditions: selectivity, ratio PEST IC50 / LYP IC50, Table IV

Compound	PEST_LYP
Cc1cc(C)c2[nH]c(=O)c([C@@H](c3nnnn3Cc3ccccc3)N3CCCC4(CCCCC4)C3)cc2c1 [compound 14]	1.18
Cc1cccc2cc([C@H](c3nnnn3Cc3ccccc3)N3CCCC4(CCCCC4)C3)c(=O)[nH]c12 [compound 31]	1.46
Cc1ccc2[nH]c(=O)c([C@@H](c3nnnn3C3CCCC3)N3CCc4ccccc4C3)cc2c1 [compound 39]	1.28
Cc1cc(C)c2[nH]c(=O)c([C@H](c3nnnn3C3CCCC3)N3CCC[C@@H](C)C3)cc2c1 [compound 49]	1.15
Cc1ccc2cc([C@H](c3nnnn3CC3CCCC3)N3CCCC4(CCCCC4)C3)c(=O)[nH]c2c1 [compound 23]	2.22
Cc1ccc2cc([C@H](c3nnnn3C3CCCC3)N3CCN(c4ccccc4)CC3)c(=O)[nH]c2c1 [compound 41]	~1.18
Cc1ccc2cc([C@@H](c3nnnn3C3CCCC3)N3CCCCC3)c(=O)[nH]c2c1 [compound 44]	2.11

Biological target: T2, PTP-PEST (Homo sapiens, UniProt Q05209)
T2 sequence (Q05209 2-323): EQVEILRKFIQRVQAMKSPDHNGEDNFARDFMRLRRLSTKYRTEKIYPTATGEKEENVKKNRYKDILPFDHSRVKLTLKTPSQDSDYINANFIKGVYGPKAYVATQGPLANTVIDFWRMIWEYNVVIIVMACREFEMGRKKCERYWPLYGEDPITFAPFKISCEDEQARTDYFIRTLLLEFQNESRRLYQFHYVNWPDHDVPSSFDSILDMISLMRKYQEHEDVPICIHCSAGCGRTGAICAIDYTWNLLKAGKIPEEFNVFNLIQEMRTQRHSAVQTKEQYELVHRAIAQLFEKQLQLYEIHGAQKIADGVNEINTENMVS
Assay: Counter-screen phosphatase assay PTP-PEST
Assay type: biochemical
Details: read-out: PEST IC50

Compound	IC50 [µM]
Cc1cccc2cc(C(c3nnnn3C3CCCC3)N3CCN(C(c4ccccc4)c4ccccc4)CC3)c(=O)[nH]c12 (centres unmarked) [compound 17]	10.1
Cc1ccc2[nH]c(=O)c([C@H](c3nnnn3C3CCCC3)N3CCN(c4ccccc4F)CC3)cc2c1 [compound 36]	23.2
Cc1ccc2[nH]c(=O)c(C(c3nnnn3C3CCCC3)N3CCN(C(c4ccccc4)c4ccccc4)CC3)cc2c1 (centres unmarked) [compound 3]	8.71
Cc1ccc2[nH]c(=O)c(C(c3nnnn3C3CCCC3)N(Cc3ccccc3)Cc3ccc(C(C)C)cc3)cc2c1 (centres unmarked) [compound 1]	5.55
Cc1cc(C)c2[nH]c(=O)c([C@@H](c3nnnn3Cc3ccccc3)N3CCCC4(CCCCC4)C3)cc2c1 [compound 14]	15.2
Cc1cccc2cc([C@H](c3nnnn3Cc3ccccc3)N3CCCC4(CCCCC4)C3)c(=O)[nH]c12 [compound 31]	29.8
Cc1cc(C)c2[nH]c(=O)c(C(c3nnnn3C3CCCC3)N3CCCC4(CCCCC4)C3)cc2c1 (centres unmarked) [compound 30]	31.1
Cc1ccc2[nH]c(=O)c([C@H](c3nnnn3C3CCCC3)N3CCN(c4ccc(F)cc4)CC3)cc2c1 [compound 45]	38
Cc1ccc2[nH]c(=O)c([C@@H](c3nnnn3C3CCCC3)N3CCc4ccccc4C3)cc2c1 [compound 39]	39
Cc1ccc2[nH]c(=O)c([C@H](c3nnnn3C3CCCC3)N3CCN(c4ccccc4)CC3)cc2c1 [compound 47]	32.5
Cc1cc(C)c2[nH]c(=O)c([C@H](c3nnnn3C3CCCC3)N3CCC[C@@H](C)C3)cc2c1 [compound 49]	45.5
Cc1ccc2cc([C@H](c3nnnn3CC3CCCC3)N3CCCC4(CCCCC4)C3)c(=O)[nH]c2c1 [compound 23]	38
Cc1ccc2cc(C(c3nnnn3C3CCCC3)N3CCN(C(c4ccccc4)c4ccccc4)CC3)c(=O)[nH]c2c1 (centres unmarked) [compound 5]	9.66
COc1ccc(N2CCN([C@H](c3cc4cc(C)ccc4[nH]c3=O)c3nnnn3C3CCCC3)CC2)cc1 [compound 42]	40.5
Cc1ccc2cc([C@H](c3nnnn3C3CCCC3)N3CCN(c4ccccc4)CC3)c(=O)[nH]c2c1 [compound 41]	~36.5
Cc1ccc2cc(C(c3nnnn3C3CCCC3)N3CCCC4(CCCCC4)C3)c(=O)[nH]c2c1 (centres unmarked) [compound 21]	21.8
Cc1ccc2cc([C@@H](c3nnnn3C3CCCC3)N3CCCCC3)c(=O)[nH]c2c1 [compound 44]	68.5
COc1ccc(CN(Cc2ccccc2)[C@@H](c2cc3cc(C)ccc3[nH]c2=O)c2nnnn2C2CCCC2)cc1 [compound 15]	15.1
Cc1ccc2[nH]c(=O)c([C@H](c3nnnn3C3CCCC3)N3CCC[C@@H](C)C3)cc2c1 [compound 24]	26.5
Cc1ccc2[nH]c(=O)c([C@@H](c3nnnn3C3CCCC3)N(Cc3ccccc3)Cc3ccc(Cl)cc3)cc2c1 [compound 7]	17
